{"source": "patent US20230025600A1", "about": "“TREATMENT OF CANCERS WITH ANTIBODY DRUG CONJUGATES (ADC) THAT BIND TO 191P4D12 PROTEINS” (AGENSYS, INC., priority 2019, published 2023)", "key": {"CYP3A4": {"molecular_target": "T1, CYP3A4 (Homo sapiens, UniProt P08684)", "T1 construct": "from tissue; host or cells: human subjects in vivo (endogenous enzyme)", "experiment": "Metabolism in vitro", "type": "in vitro ADME", "text": "Enfortumab vedotin-ejfv catabolism has not been studied in humans; however, it is expected to undergo catabolism to small peptides, amino acids, unconjugated MMAE, and unconjugated MMAE-related catabolites."}, "rat bone marrow": {"tested_on": "rat bone marrow", "experiment": "Rat bone marrow micronucleus study", "type": "in vivo", "conditions": "aneugenic mechanism", "text": "(§1) MMAE was genotoxic in the rat bone marrow micronucleus study through an aneugenic mechanism. This effect is consistent with the pharmacological effect of MMAE as a microtubule-disrupting agent. MMAE was not mutagenic in the bacterial reverse mutation assay (Ames test) or the L5178Y mouse lymphoma forward mutation assay."}, "L5178Y mouse lymphoma": {"tested_on": "L5178Y mouse lymphoma", "experiment": "L5178Y mouse lymphoma forward mutation assay", "type": "cell-based", "text": "as §1"}, "[1]": {"experiment": "Population pharmacokinetic analysis in patients", "type": "in vivo, human", "text": "Population pharmacokinetic analysis included data from 369 patients based on three Phase 1 studies and one Phase 2 study. Enfortumab vedotin-ejfv pharmacokinetics were characterized after single and multiple doses in patients with locally advanced or metastatic urothelial carcinoma and other solid tumors.\nSteady-state concentrations of ADC and MMAE were reached after 1 treatment cycle."}, "[2]": {"tested_on": "bacterial reverse mutation", "experiment": "Bacterial reverse mutation assay (Ames test)", "type": "cell-based", "text": "as §1"}, "P-glycoprotein (P-gp)": {"molecular_target": "P-glycoprotein (P-gp) (Homo sapiens, UniProt P08183)", "sequence (P08183 whole entry)": "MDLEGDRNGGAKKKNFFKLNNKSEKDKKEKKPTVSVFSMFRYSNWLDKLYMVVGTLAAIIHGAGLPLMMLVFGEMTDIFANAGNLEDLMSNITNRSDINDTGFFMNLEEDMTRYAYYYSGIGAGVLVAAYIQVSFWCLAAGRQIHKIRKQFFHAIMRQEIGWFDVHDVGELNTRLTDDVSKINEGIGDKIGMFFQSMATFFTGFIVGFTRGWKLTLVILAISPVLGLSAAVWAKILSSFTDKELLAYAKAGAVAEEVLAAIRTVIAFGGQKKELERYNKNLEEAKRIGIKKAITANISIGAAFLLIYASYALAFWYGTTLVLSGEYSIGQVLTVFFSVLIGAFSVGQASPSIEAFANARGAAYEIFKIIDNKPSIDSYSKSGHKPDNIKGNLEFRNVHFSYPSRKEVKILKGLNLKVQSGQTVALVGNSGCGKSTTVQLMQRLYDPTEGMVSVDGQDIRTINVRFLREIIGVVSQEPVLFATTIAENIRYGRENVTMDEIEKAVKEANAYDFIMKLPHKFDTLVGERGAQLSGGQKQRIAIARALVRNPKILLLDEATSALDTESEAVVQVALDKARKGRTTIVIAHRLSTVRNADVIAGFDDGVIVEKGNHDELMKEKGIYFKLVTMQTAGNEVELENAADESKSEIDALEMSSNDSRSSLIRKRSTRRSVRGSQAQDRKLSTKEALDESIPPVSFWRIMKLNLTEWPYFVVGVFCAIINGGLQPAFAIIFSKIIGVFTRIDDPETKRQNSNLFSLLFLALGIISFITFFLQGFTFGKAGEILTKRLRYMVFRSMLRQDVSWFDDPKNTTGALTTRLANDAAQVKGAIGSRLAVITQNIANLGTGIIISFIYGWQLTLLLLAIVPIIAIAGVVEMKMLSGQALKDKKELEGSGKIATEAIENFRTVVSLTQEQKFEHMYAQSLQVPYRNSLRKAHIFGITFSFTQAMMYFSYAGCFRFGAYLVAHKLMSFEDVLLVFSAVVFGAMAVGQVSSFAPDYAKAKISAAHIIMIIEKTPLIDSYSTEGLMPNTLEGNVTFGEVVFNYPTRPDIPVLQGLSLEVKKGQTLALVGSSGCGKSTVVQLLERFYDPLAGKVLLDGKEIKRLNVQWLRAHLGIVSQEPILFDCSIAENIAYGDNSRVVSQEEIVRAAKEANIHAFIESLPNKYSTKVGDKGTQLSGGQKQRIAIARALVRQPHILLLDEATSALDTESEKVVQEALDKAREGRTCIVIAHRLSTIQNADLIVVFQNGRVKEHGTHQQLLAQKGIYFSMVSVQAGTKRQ", "experiment": "Transporter systems in vitro", "type": "in vitro ADME"}, "[3]": {"tested_on": "acute myeloid leukemia (AML) at relapse", "conditions": "administered alone; cited from earlier work"}, "[4]": {"tested_on": "human lung cancer xenograft AG-L4", "experiment": "Efficacy in subcutaneous established human lung cancer xenograft AG-L4 in SCID mice", "type": "in vivo", "conditions": "10 mg/kg every seven days for two doses, intravenous bolus; tumors about 200 mm^3 at start; compared to control ADC", "protocol": "In another experiment, patient-derived lung cancer xenograft AG-L4 was maintained by serial passages in SCID mice. Stock tumors were harvested sterilely and minced into 1 mm^3 pieces. Six (6) pieces were implanted into the flank of individual SCID mice. Tumors were allowed to grow untreated until they reached an approximate volume of 200 mm^3. The Ha22-2(2,4)6.1vcMMAE and the control ADC were dosed at 10 mg/kg every seven (7) days for two doses by intravenous bolus injection. The amount of ADC administered was based on the individual body weight of each animal obtained immediately prior to dosing. Tumor growth was monitored using caliper measurements every 3 to 4 days. Tumor volume was calculated as Width^2×Length/2, where width is the smallest dimension and length is the largest dimension."}, "[5]": {"tested_on": "human breast cancer xenograft BT-483", "experiment": "Efficacy in subcutaneous established human breast cancer xenograft BT-483 in SCID mice", "type": "in vivo", "conditions": "5 mg/kg every four days for four doses, intravenous bolus; tumors about 100 mm^3 at start; compared to control ADC", "protocol": "In this experiment, human breast cancer BT-483 cells were used to generate stock xenografts, which were maintained by serial passages in SCID mice. Stock tumors were harvested sterilely and minced into 1 mm^3 pieces. Six (6) pieces were implanted into the flank of individual SCID mice. Tumors were allowed to grow untreated until they reached an approximate volume of 100 mm^3. The Ha22-2(2,4)6.1vcMMAE and the control ADC were dosed at 5 mg/kg every four (4) days for four (4) doses by intravenous bolus injection. The amount of ADC administered was based on the individual body weight of each animal obtained immediately prior to dosing. Tumor growth was monitored using caliper measurements every 3 to 4 days. Tumor volume was calculated as Width^2×Length/2, where width is the smallest dimension and length is the largest dimension."}, "[6]": {"conditions": "unconjugated MMAE, after first treatment cycle of 1.25 mg/kg, Days 1, 8 and 15"}}, "note": "Square brackets hold non-standard residues; d marks the D form. Peptide text beside a SMILES is read from it. * marks the point of attachment. Dolaproine = CO[C@@H]([C@@H]1CCCN1)[C@@H](C)C(=O)O; Dil = CC[C@H](C)[C@H](NC)[C@@H](CC(=O)O)OC; X1 = C[C@@H](N*)[C@@H](O)c1ccccc1; NMeV = CN[C@H](C(=O)O)C(C)C"}
{"compound": "CC[C@H](C)[C@@H]([C@@H](CC(=O)N1CCC[C@H]1[C@H](OC)[C@@H](C)C(=O)N[C@H](C)[C@@H](O)c1ccccc1)OC)N(C)C(=O)[C@@H](NC(=O)[C@@H](NC)C(C)C)C(C)C", "note": "[MMAE, monomethyl auristatin E] (H-[NMeV]V[Dil][Dolaproine]-X1)", "values": [{"measurement": "metabolism in vitro", "setting": "CYP3A4", "result": "primarily metabolized by CYP3A4"}, {"measurement": "genotoxicity in rat bone marrow micronucleus study", "setting": "rat bone marrow", "result": "genotoxic"}, {"measurement": "mutagenicity in L5178Y mouse lymphoma forward mutation assay", "setting": "L5178Y mouse lymphoma", "result": "not mutagenic"}, {"measurement": "exposure (AUC) in mild, moderate or severe renal impairment", "setting": "[1]; 1.25 mg/kg, compared to normal renal function", "result": "No significant differences"}, {"measurement": "AUC increase in mild hepatic impairment", "setting": "[1]; n=31, compared to normal hepatic function, population pharmacokinetics analysis", "result": 48, "unit": "%"}, {"measurement": "accumulation following repeat administration", "setting": "[1]; patients", "result": "Minimal accumulation"}, {"measurement": "elimination of MMAE", "setting": "[1]; patients", "result": "limited by its rate of release from enfortumab vedotin-ejfv"}, {"measurement": "mean clearance (CL)", "setting": "[1]; patients", "result": 2.7, "unit": "L/h"}, {"measurement": "steady-state concentrations reached after", "setting": "[1]; patients", "result": 1, "unit": "treatment cycle"}, {"measurement": "time of peak MMAE concentrations after enfortumab vedotin-ejfv dosing", "setting": "[1]; patients", "result": "approximately 2 days"}, {"measurement": "elimination half-life", "setting": "[1]; patients, multi-exponential declines", "result": 57.6, "unit": "h"}, {"measurement": "AUC0-28 d, Mean (±SD)", "setting": "[1]; [6]", "result": "69 (42) ng · d/mL"}, {"measurement": "Cmax, Mean (±SD)", "setting": "[1]; [6]", "result": "4.8 (2.7) ng/mL"}, {"measurement": "Ctrough, 0-28 d (pre-dose concentration on day 28), Mean (±SD)", "setting": "[1]; [6]", "result": "0.57 (0.58) ng/mL"}, {"measurement": "mutagenicity in Ames test", "setting": "[2]", "result": "not mutagenic"}, {"measurement": "P-gp inhibition", "setting": "P-glycoprotein (P-gp)", "result": "not an inhibitor"}, {"measurement": "P-gp substrate", "setting": "P-glycoprotein (P-gp)", "result": "substrate"}]}
{"compound": "CT-011: anti-PD-1 antibody, a humanized antibody", "values": [{"measurement": "response in acute myeloid leukemia (AML) at relapse", "setting": "[3]", "result": "failed to show response"}]}
{"compound": "Ha22-2(2,4)6.1-vcMMAE: 191P4D12 ADC: antibody Ha22-2(2,4)6.1 (murine hybridoma cell line-derived) conjugated to MMAE via vc linker", "values": [{"measurement": "growth of AG-L4 lung cancer xenografts", "setting": "[4]", "result": "significantly inhibited"}, {"measurement": "growth of BT-483 breast tumor xenografts", "setting": "[5]", "result": "significantly inhibited"}]}
